From patent US20260226493A1, “HERBICIDE RESISTANT PLANTS” (SYNGENTA CROP PROTECTION AG, priority 2023, published 2026)

Key:
Assay in all cases: BIO3-BIO1 mutant enzyme activity in the presence of herbicide, percentage inhibition (fluorometric DAPA assay)
Assay type in all cases: biochemical
Conditions in all cases: read-out: percentage inhibition
[1] = target: T1, Arabidopsis thaliana BIO3-BIO1 (BioDA) mutants (Arabidopsis thaliana, UniProt B0F481, R790C)
T1 construct: with the predicted N-terminal mitochondrial transit peptide removed; 6xHis-tag (N); thrombin cleavage site (N); made in house; host or cells: E. coli BL21 (DE3) bioA
T1 sequence (B0F481 23-833 R790C): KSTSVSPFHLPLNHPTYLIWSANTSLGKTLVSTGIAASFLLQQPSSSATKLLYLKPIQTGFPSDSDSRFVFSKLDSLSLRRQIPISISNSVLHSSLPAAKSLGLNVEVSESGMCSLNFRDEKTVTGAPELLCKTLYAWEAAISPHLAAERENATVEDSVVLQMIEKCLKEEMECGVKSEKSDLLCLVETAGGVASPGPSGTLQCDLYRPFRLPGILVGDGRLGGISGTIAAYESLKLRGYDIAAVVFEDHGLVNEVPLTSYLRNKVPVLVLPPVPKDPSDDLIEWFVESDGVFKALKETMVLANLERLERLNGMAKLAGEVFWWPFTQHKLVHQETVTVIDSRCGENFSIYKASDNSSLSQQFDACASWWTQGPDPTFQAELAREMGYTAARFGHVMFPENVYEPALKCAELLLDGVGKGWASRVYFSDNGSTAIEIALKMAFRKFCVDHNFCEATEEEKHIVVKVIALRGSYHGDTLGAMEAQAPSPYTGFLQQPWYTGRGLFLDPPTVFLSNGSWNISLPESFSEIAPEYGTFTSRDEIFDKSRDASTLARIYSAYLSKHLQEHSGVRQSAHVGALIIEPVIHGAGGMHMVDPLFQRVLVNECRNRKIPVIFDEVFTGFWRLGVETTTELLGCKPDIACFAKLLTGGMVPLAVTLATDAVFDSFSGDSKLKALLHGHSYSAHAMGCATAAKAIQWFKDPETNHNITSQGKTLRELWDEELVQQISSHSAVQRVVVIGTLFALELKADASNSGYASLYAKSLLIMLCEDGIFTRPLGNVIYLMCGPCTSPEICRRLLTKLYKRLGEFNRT
Summary of the method: (§1)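 Percentage inhibition compares activity at one of three herbicide concentrations against DMSO, from o-phthalaldehyde-derivatised DAPA fluorescence (ex 410, em 470 nm). Purified N-His BIO3-BIO1 variants (50 nM, E. coli-expressed) saw herbicide 10 min at 20 °C in pH 8.6 EPPS buffer, then 20 μM KAPA plus 100 μM spermidine for 75 min at 20 °C.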

[2] = target: T2, Arabidopsis thaliana BIO3-BIO1 (BioDA) mutants (Arabidopsis thaliana, UniProt B0F481, P347A)
T2 construct: with the predicted N-terminal mitochondrial transit peptide removed; 6xHis-tag (N); thrombin cleavage site (N); made in house; host or cells: E. coli BL21 (DE3) bioA
T2 sequence (B0F481 23-833 P347A): as the sequence (B0F481 23-833 R790C) above, with P325A, C768R counted along it
Summary of the method: as §1

[3] = target: T3, Arabidopsis thaliana BIO3-BIO1 (BioDA) mutants (Arabidopsis thaliana, UniProt B0F481, P421E)
T3 construct: with the predicted N-terminal mitochondrial transit peptide removed; 6xHis-tag (N); thrombin cleavage site (N); made in house; host or cells: E. coli BL21 (DE3) bioA
T3 sequence (B0F481 23-833 P421E): as the sequence (B0F481 23-833 R790C) above, with P399E, C768R counted along it
Summary of the method: as §1

[4] = target: T4, Arabidopsis thaliana BIO3-BIO1 (BioDA) mutants (Arabidopsis thaliana, UniProt B0F481, R756S)
T4 construct: with the predicted N-terminal mitochondrial transit peptide removed; 6xHis-tag (N); thrombin cleavage site (N); made in house; host or cells: E. coli BL21 (DE3) bioA
T4 sequence (B0F481 23-833 R756S): as the sequence (B0F481 23-833 R790C) above, with R734S, C768R counted along it
Summary of the method: as §1

[5] = target: T5, Arabidopsis thaliana BIO3-BIO1 (BioDA) mutants (Arabidopsis thaliana, UniProt B0F481, T512W)
T5 construct: with the predicted N-terminal mitochondrial transit peptide removed; 6xHis-tag (N); thrombin cleavage site (N); made in house; host or cells: E. coli BL21 (DE3) bioA
T5 sequence (B0F481 23-833 T512W): as the sequence (B0F481 23-833 R790C) above, with T490W, C768R counted along it
Summary of the method: as §1

[6] = target: T6, Arabidopsis thaliana BIO3-BIO1 (BioDA) mutants (Arabidopsis thaliana, UniProt B0F481, A609C)
T6 construct: with the predicted N-terminal mitochondrial transit peptide removed; 6xHis-tag (N); thrombin cleavage site (N); made in house; host or cells: E. coli BL21 (DE3) bioA
T6 sequence (B0F481 23-833 A609C): as the sequence (B0F481 23-833 R790C) above, with A587C, C768R counted along it
Summary of the method: as §1

[7] = target: T7, Arabidopsis thaliana BIO3-BIO1 (BioDA) mutants (Arabidopsis thaliana, UniProt B0F481, Y511M)
T7 construct: with the predicted N-terminal mitochondrial transit peptide removed; 6xHis-tag (N); thrombin cleavage site (N); made in house; host or cells: E. coli BL21 (DE3) bioA
T7 sequence (B0F481 23-833 Y511M): as the sequence (B0F481 23-833 R790C) above, with Y489M, C768R counted along it
Summary of the method: as §1

[8] = target: T8, Arabidopsis thaliana BIO3-BIO1 (BioDA) mutants (Arabidopsis thaliana, UniProt B0F481, Q517D)
T8 construct: with the predicted N-terminal mitochondrial transit peptide removed; 6xHis-tag (N); thrombin cleavage site (N); made in house; host or cells: E. coli BL21 (DE3) bioA
T8 sequence (B0F481 23-833 Q517D): as the sequence (B0F481 23-833 R790C) above, with Q495D, C768R counted along it
Summary of the method: as §1

[9] = target: T9, Arabidopsis thaliana BIO3-BIO1 (BioDA) mutants (Arabidopsis thaliana, UniProt B0F481, F420I)
T9 construct: with the predicted N-terminal mitochondrial transit peptide removed; 6xHis-tag (N); thrombin cleavage site (N); made in house; host or cells: E. coli BL21 (DE3) bioA
T9 sequence (B0F481 23-833 F420I): as the sequence (B0F481 23-833 R790C) above, with F398I, C768R counted along it
Summary of the method: as §1

[10] = target: T10, Arabidopsis thaliana BIO3-BIO1 (BioDA) mutants (Arabidopsis thaliana, UniProt B0F481, C388T)
T10 construct: with the predicted N-terminal mitochondrial transit peptide removed; 6xHis-tag (N); thrombin cleavage site (N); made in house; host or cells: E. coli BL21 (DE3) bioA
T10 sequence (B0F481 23-833 C388T): as the sequence (B0F481 23-833 R790C) above, with C366T, C768R counted along it
Summary of the method: as §1

[11] = target: T11, Arabidopsis thaliana BIO3-BIO1 (BioDA) mutants (Arabidopsis thaliana, UniProt B0F481, T512Q)
T11 construct: with the predicted N-terminal mitochondrial transit peptide removed; 6xHis-tag (N); thrombin cleavage site (N); made in house; host or cells: E. coli BL21 (DE3) bioA
T11 sequence (B0F481 23-833 T512Q): as the sequence (B0F481 23-833 R790C) above, with T490Q, C768R counted along it
Summary of the method: as §1

[12] = target: T12, Arabidopsis thaliana BIO3-BIO1 (BioDA) mutants (Arabidopsis thaliana, UniProt B0F481, S509H)
T12 construct: with the predicted N-terminal mitochondrial transit peptide removed; 6xHis-tag (N); thrombin cleavage site (N); made in house; host or cells: E. coli BL21 (DE3) bioA
T12 sequence (B0F481 23-833 S509H): as the sequence (B0F481 23-833 R790C) above, with S487H, C768R counted along it
Summary of the method: as §1

Row | SMILES | inhibition at 1 µM [1] [%] | inhibition at 1 µM [2] [%] | inhibition at 1 µM [3] [%] | inhibition at 1 µM [4] [%] | inhibition at 1 µM [5] [%] | inhibition at 1 µM [6] [%] | inhibition at 1 µM [7] [%] | inhibition at 1 µM [8] [%] | inhibition at 1 µM [9] [%] | inhibition at 1 µM [10] [%] | inhibition at 1 µM [11] [%] | inhibition at 1 µM [12] [%] | inhibition at 0.2 µM [1] [%] | inhibition at 5 µM [1] [%] | inhibition at 0.2 µM [2] [%] | inhibition at 5 µM [2] [%] | inhibition at 0.2 µM [3] [%] | inhibition at 5 µM [3] [%] | inhibition at 0.2 µM [4] [%] | inhibition at 5 µM [4] [%] | also measured
1 | CCOC(=O)c1nn(-c2ccc3c(c2)OC(F)(F)C(F)(F)O3)c2cccc(C(C)=O)c2c1=O [Compound A, ethyl 5-acetyl-4-oxo-1-(2,2,3,3-tetrafluoro-1,4-benzodioxin-6-yl)cinnoline-3-carboxylate] | 2 | 20 | 0 | 67 | 0 | 18 | 59 | 22 | 0 | 31 | 49 | 0 |  |  |  |  |  |  |  |  | 
2 | CCn1c(C)c(-c2ccc(F)cc2F)c(=O)c(C(=O)O)c1-c1ccc(Cl)c(Cl)c1 [Compound C, 2-(3,4-dichlorophenyl)-5-(2,4-difluorophenyl)-1-ethyl-6-methyl-4-oxo-pyridine-3-carboxylic acid] | 11 | 27 | 31 | 57 | 83 | 73 | 99 | 0 | 55 | 78 | 96 | 75 | 0 | 62 | 3 | 51 | 37 | 0 | 24 | 83 | inhibition at 0.2 µM [5]: 50%; inhibition at 5 µM [5]: 95%; inhibition at 0.2 µM [6]: 29%; inhibition at 5 µM [6]: 94%; inhibition at 0.2 µM [7]: 76%; inhibition at 5 µM [7]: 100%; inhibition at 0.2 µM [8]: 0%; inhibition at 5 µM [8]: 0%; inhibition at 0.2 µM [9]: 0%; inhibition at 5 µM [9]: 88%; inhibition at 0.2 µM [10]: 49%; inhibition at 5 µM [10]: 95%; inhibition at 0.2 µM [11]: 53%; inhibition at 5 µM [11]: 100%; inhibition at 0.2 µM [12]: 20%; inhibition at 5 µM [12]: 98%
3 | CCn1c(Cn2ccc(C(F)(F)F)n2)cc(=O)c(C(=O)O)c1-c1ccc(Cl)c(Cl)c1 [Compound L, 2-(3,4-dichlorophenyl)-1-ethyl-4-oxo-6-[[3-(trifluoromethyl)pyrazol-1-yl]methyl]pyridine-3-carboxylic acid] |  |  |  |  |  |  |  |  |  |  |  |  |  |  |  |  |  |  |  |  | inhibition at 0.01 µM [2]: 8%; inhibition at 0.075 µM [2]: 23%; inhibition at 0.5 µM [2]: 47%; inhibition at 0.01 µM [3]: 0%; inhibition at 0.075 µM [3]: 0%; inhibition at 0.5 µM [3]: 41%; inhibition at 0.01 µM [6]: 4%; inhibition at 0.075 µM [6]: 22%; inhibition at 0.5 µM [6]: 30%; inhibition at 0.01 µM [8]: 0%; inhibition at 0.075 µM [8]: 0%; inhibition at 0.5 µM [8]: 0%; inhibition at 0.01 µM [9]: 0%; inhibition at 0.075 µM [9]: 1%; inhibition at 0.5 µM [9]: 62%; inhibition at 0.01 µM [10]: 19%; inhibition at 0.075 µM [10]: 58%; inhibition at 0.5 µM [10]: 92%
4 | CCn1c(-c2ccc(Cl)c(Cl)c2)c(C(=O)O)c(=O)c2cc(F)ccc21 [Compound M, 2-(3,4-dichlorophenyl)-1-ethyl-6-fluoro-4-oxo-quinoline-3-carboxylic acid] | 9 | 26 | 47 | 54 | 55 | 47 | 83 | 2 | 45 | 78 | 91 | 82 | 0 | 49 | 8 | 52 | 0 | 62 | 23 | 78 | inhibition at 0.2 µM [5]: 33%; inhibition at 5 µM [5]: 83%; inhibition at 0.2 µM [6]: 10%; inhibition at 5 µM [6]: 78%; inhibition at 0.2 µM [7]: 41%; inhibition at 5 µM [7]: 97%; inhibition at 0.2 µM [8]: 6%; inhibition at 5 µM [8]: 0%; inhibition at 0.2 µM [9]: 0%; inhibition at 5 µM [9]: 84%; inhibition at 0.2 µM [10]: 48%; inhibition at 5 µM [10]: 95%; inhibition at 0.2 µM [11]: 49%; inhibition at 5 µM [11]: 99%; inhibition at 0.2 µM [12]: 23%; inhibition at 5 µM [12]: 98%
